We go through 22 compounds from PMC5085689, “Cinnamide Derivatives as Mammalian Arginase Inhibitors: Synthesis, Biological Evaluation and Molecular Docking” (International Journal of Molecular Sciences, 2016).

Broadly, the IC50 is the midpoint of a concentration-inhibition curve. A word on the inhibition: it is the share of the control response that was lost under treatment. By Ki is commonly meant a dissociation constant, usually derived from enzyme kinetics or from competition with a known ligand.

Several values for one entry are separate records, joined by “and”; a condition that tells them apart may be missing. Equal values may be shown once. Read-outs that look alike come from different tables or passages of the source. Where only a bound is given, the exact number is not on record here.

For test [1], the target named is T1, purified liver bovine arginase (b-ARG I) (Bos taurus, UniProt Q2KJ64).
T1 construct: commercially-available purified bovine arginase (b-ARG I) instead of animal tissue; purchased MP Biomedicals; host or cells: bovine liver (enzyme purified from tissue)
T1 sequence (Q2KJ64 1-322): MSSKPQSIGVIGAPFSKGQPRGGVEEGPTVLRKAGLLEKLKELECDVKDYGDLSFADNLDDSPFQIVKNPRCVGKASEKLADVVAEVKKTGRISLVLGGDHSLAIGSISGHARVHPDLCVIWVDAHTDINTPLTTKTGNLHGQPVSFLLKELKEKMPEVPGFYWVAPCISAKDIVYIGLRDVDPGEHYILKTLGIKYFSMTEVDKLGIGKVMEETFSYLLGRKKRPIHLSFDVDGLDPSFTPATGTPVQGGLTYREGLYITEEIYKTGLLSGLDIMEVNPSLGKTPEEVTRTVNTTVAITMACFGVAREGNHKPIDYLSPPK
Briefly: In vitro colorimetric microassay of arginase inhibition on purified bovine liver arginase.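 As to all read-outs here: urea formed from L-arginine detected colorimetrically with alpha-isonitrosopropiophenone at 550 nm after 60 min at 37 °C, inhibition relative to solvent controls taken as 100% arginase activity.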 Format: biochemical. The note with it: for inhibition at 100 µM: read-out: b-ARG I Inhibition (%) (100 μM).

The target of another test is T2, b-ARG I (Bos taurus, UniProt Q2KJ64).
T2 construct: commercially-available purified bovine arginase (b-ARG I) instead of animal tissue; purchased MP Biomedicals; host or cells: bovine liver (enzyme purified from tissue)
T2 sequence (Q2KJ64 1-322): T1 sequence (Q2KJ64 1-322)
Briefly: Enzyme kinetic study and determination of Ki values on b-ARG I. Format: biochemical, bovine. The settings on record: for Type of Inhibition: Lineweaver–Burk, Dixon and Cornish–Bowden plots.

For test [2], the target named is T3, recombinant human arginase I (h-ARG I) (Homo sapiens, UniProt P05089).
T3 construct: purchased Interchim BXC572/n P0408M10
T3 sequence (P05089 1-322): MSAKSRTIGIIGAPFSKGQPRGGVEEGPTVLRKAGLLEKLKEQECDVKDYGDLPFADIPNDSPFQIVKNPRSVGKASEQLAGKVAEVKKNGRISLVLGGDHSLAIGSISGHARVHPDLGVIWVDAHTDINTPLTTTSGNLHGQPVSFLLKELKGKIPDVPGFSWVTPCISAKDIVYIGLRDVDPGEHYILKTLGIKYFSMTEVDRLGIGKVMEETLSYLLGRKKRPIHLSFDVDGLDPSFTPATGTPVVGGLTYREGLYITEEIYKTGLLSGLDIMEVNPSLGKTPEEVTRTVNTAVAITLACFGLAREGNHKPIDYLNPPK
Nature of the test: In vitro colorimetric microassay of arginase inhibition on recombinant human arginase I. Format: biochemical.

[3] abbreviates: 100 μM final concentration, three separate in-duplicate experiments.
Where [4] appears, read: purified bovine liver arginase, three separate in-triplicate experiments, read-out: IC50 (b-ARG I).
Where [5] appears, read: b-ARG I, Cheng–Prusoff equation, [S] = 14.3 mM L-arginine, Km = 55.5 ± 10.5 µM, read-out: Ki.

For the compound `O=C(/C=C/c1ccc(O)c(O)c1)O[C@@H]1C[C@](O)(C(=O)O)C[C@@H](O)[C@H]1O` [CGA, chlorogenic acid, reference compound], the IC50 in test [1] (IC50 (b-ARG I), purified bovine liver arginase, three separate in-triplicate experiments) is < 50 µM and 10.6 µM. For the same compound, the inhibition at 100 µM in test [1] stood at 71 ± 1%. Also, the affinity on b-ARG I, expressed as Ki, was 8.4 ± 1.2 µM. In addition, the “Type of Inhibition” value at b-ARG I (b-ARG I) is given as “competitive”.
For the compound `O=C(/C=C/c1ccccc1)NCCc1ccccc1` [Compound 5, (E)-N-(2-Phenylethyl)cinnamide], in test [1] (setting [3]), the inhibition at 100 µM was found to be 34 ± 2%.
Compound `O=C(O)/C=C/c1ccc(O)c(O)c1` [Caffeic acid, reference compound] gave an IC50 in test [1] of 86.7 ± 8 µM.
With `N=C(NO)NCC[C@H](N)C(=O)O` [nor-NOHA, N^ω-hydroxy-nor-L-arginine, reference compound], in test [1] (setting [3]), the inhibition at 100 µM stood at 99 ± 1%. In test [1] (setting [4]), the IC50 was 1.7 ± 0.2 µM. Also, the Ki at b-ARG I (setting [5]) worked out at 1.3 ± 0.1 µM. In addition, on b-ARG I (b-ARG I), the “Type of Inhibition” value was “competitive”.
As to `O=C(/C=C/c1ccc(O)c(O)c1)NCCc1ccc(O)cc1` [Compound 6, (E)-N-(2-(4-Hydroxyphenyl)ethyl)-3,4-dihydroxycinnamide], the inhibition at 100 µM in test [1] (setting [3]) was found to be 58 ± 2%. Also, the IC50 in test [1] (setting [4]) was 22.1 ± 1.6 µM.
Take `COc1cc(/C=C/C(=O)NCCc2ccc(O)c(O)c2)cc(OC)c1OC` [Compound 14, (E)-N-(3,4-Dihydroxyphenethyl)-3,4,5-trimethoxycinnamide]: in test [1] (setting [3]), the inhibition at 100 µM stood at 53 ± 1%. Besides, in test [1] (setting [4]), the IC50 is 193.6 ± 1.4 µM.
Take `COc1cc(/C=C/C(=O)NCCc2ccccc2)cc(OC)c1OC` [Compound 4, (E)-N-(2-Phenylethyl)-3,4,5-trimethoxycinnamide]: in test [1] (setting [3]), the inhibition at 100 µM came out at 35 ± 2%.
Turning to `COc1cc(/C=C/C(=O)NCCc2ccccc2)ccc1O` [Compound 2, (E)-N-(2-Phenylethyl)-3-methoxy-4-hydroxycinnamide], the inhibition at 100 µM in test [1] (setting [3]) came out at 37 ± 4%.
As for `COc1cc(/C=C/C(=O)NCCc2ccc(O)c(O)c2)ccc1O` [Compound 12, (E)-N-(3,4-Dihydroxyphenethyl)-3-methoxy-4-hydroxycinnamide], the inhibition at 100 µM in test [1] (setting [3]) is 61 ± 3%. Further, the IC50 in test [1] (setting [4]) came out at 198.7 ± 1.4 µM.
As for `O=C(/C=C/c1ccc(O)cc1)NCCc1ccc(O)cc1` [Compound 8, (E)-N-(4-Hydroxyphenethyl)-4-hydroxycinnamide], in test [1] (setting [3]), the inhibition at 100 µM stood at 40 ± 2%.
For the compound `COC(=O)[C@H](CS)NC(=O)/C=C/c1ccc(O)c(O)c1` [Compound 19, (E)-N-(3,4-Dihydroxycinnamoyl)-L-cysteine methyl ester], the inhibition at 100 µM in test [1] (setting [3]) turned out to be 67 ± 1%. For the same compound, in test [1] (setting [4]), the IC50 is 37 ± 1.3 µM.
The matching figures for `COC(=O)C(Cc1ccc(O)c(O)c1)NC(=O)C=Cc1ccc(O)c(O)c1` (stereo not shown) [Compound 18, 3-(3,4-Dihydroxyphenyl)-2-[3-(3,4-dihydroxyphenyl)-acryloylamino]-propionic acid methyl ester]: 62 ± 1% and 41.9 ± 1.3 µM.
In the case of `O=C(/C=C/c1ccc(O)cc1)NCCc1ccccc1` [Compound 3, (E)-N-(2-Phenylethyl)-4-hydroxycinnamide], the inhibition at 100 µM in test [1] (setting [3]) came out at 31 ± 4%.
On to `O=C(/C=C/c1ccc(O)c(O)c1)Nc1ccc(O)cc1` [Compound 16, (E)-N-(4-Hydroxyphenyl)-3,4-dihydroxycinnamide], for which the inhibition at 100 µM in test [1] (setting [3]) turned out to be 59 ± 1%. In addition, the IC50 in test [1] (setting [4]) was found to be 35.6 ± 1.3 µM.
In the case of `O=C(/C=C/c1ccccc1)NCCc1ccc(O)cc1` [Compound 10, (E)-N-(4-Hydroxyphenethyl)-cinnamide], the inhibition at 100 µM in test [1] (setting [3]) worked out at 34 ± 3%.
For `O=C(NCCc1ccc(O)cc1)c1ccc(O)c(O)c1` [Compound 17, N-(4-Hydoxyphenethyl)-3,4-dihydroxybenzamide], the inhibition at 100 µM in test [1] (setting [3]) came to 52 ± 2%. The IC50 in test [1] (setting [4]) was determined as 175.3 ± 1.5 µM.
Taken in the same sequence, the figures for `O=C(/C=C/c1ccc(O)c(O)c1)NCCc1ccc(O)c(O)c1` [Compound 11, (E)-N-(3,4-Dihydroxyphenethyl)-3,4-dihydroxycinnamide] were 62 ± 3% and 115 ± 1.3 µM.
Taken in the same sequence, the figures for `O=C(/C=C/c1ccc(O)cc1)NCCc1ccc(O)c(O)c1` [Compound 13, (E)-N-(3,4-Dihydroxyphenethyl)-4-hydroxycinnamide] were 54 ± 1% and 170.4 ± 1.7 µM.
For the compound `COc1cc(/C=C/C(=O)NCCc2ccc(O)cc2)ccc1O` [Compound 7, (E)-N-(4-Hydroxyphenethyl)-3-methoxy-4-hydroxycinnamide], the inhibition at 100 µM in test [1] (setting [3]) amounted to 24 ± 2%.
Same read-out and setting: the value for `COc1cc(/C=C/C(=O)NCCc2ccc(O)cc2)cc(OC)c1OC` [Compound 9, (E)-N-(4-Hydroxyphenethyl)-3,4,5-trimethoxycinnamide] was 30 ± 2%.
For the compound `O=C(/C=C/c1ccc(O)c(O)c1)NCCc1ccccc1` [Compound 1, (E)-N-(2-Phenylethyl)-3,4-dihydroxycinnamide], the inhibition at 100 µM in test [1] (setting [3]) came out at 64 ± 2%. In addition, the IC50 came out at 6.9 ± 1.3 µM in test [1] (setting [4]) and 60.3 ± 7.8 µM in test [2]. Besides, the Ki at b-ARG I (setting [5]) was found to be 5.5 ± 1 µM. In addition, the “Type of Inhibition” value at b-ARG I (b-ARG I, listed as CAPA) is on record as “competitive inhibitor”; on b-ARG I (b-ARG I, listed as CAPA (1)), “competitive”.
In the case of `O=C(/C=C/c1ccccc1)NCCc1ccc(O)c(O)c1` [Compound 15, (E)-N-(3,4-Dihydroxyphenethyl)cinnamide], the inhibition at 100 µM in test [1] (setting [3]) was 68 ± 3%. Moreover, the IC50 in test [1] (setting [4]) is 39.3 ± 1.4 µM.
